Data from paper PMC4361037 (Annals of neurology, 2014).
“And” between values parts separate entries of the source, which are not always exact repeats. Equal entries are not always repeated. Where two headings read alike, the source gives them in different places.

Legend:
[1] = system: GAA repeat RNA–containing foci
[2] = human, in vivo, po
[3] = clinical; conditions: human, in vivo, po; for half-life: t½ (elimination half-life)
[4] = system: GAA•TTC repeats
[5] = system: FXN mRNA; experiment: qRT-PCR analysis of FXN mRNA expression in FRDA iPSC-derived neurons; format: cell-based, human; conditions: 10μM, 24-hour treatment
[6] = system: HDAC3 versus HDAC1/2; conditions: cited from earlier work
[7] = system: FXN mRNA and protein; conditions: cited from earlier work; for upregulation of FXN mRNA and protein: patient PBMCs
[8] = molecular target: human ether-a-go-go related gene (hERG) (Homo sapiens, UniProt Q12809); experiment: Automated patch clamp assay; format: cell-based
Sequence of human ether-a-go-go related gene (hERG) (Q12809 whole entry): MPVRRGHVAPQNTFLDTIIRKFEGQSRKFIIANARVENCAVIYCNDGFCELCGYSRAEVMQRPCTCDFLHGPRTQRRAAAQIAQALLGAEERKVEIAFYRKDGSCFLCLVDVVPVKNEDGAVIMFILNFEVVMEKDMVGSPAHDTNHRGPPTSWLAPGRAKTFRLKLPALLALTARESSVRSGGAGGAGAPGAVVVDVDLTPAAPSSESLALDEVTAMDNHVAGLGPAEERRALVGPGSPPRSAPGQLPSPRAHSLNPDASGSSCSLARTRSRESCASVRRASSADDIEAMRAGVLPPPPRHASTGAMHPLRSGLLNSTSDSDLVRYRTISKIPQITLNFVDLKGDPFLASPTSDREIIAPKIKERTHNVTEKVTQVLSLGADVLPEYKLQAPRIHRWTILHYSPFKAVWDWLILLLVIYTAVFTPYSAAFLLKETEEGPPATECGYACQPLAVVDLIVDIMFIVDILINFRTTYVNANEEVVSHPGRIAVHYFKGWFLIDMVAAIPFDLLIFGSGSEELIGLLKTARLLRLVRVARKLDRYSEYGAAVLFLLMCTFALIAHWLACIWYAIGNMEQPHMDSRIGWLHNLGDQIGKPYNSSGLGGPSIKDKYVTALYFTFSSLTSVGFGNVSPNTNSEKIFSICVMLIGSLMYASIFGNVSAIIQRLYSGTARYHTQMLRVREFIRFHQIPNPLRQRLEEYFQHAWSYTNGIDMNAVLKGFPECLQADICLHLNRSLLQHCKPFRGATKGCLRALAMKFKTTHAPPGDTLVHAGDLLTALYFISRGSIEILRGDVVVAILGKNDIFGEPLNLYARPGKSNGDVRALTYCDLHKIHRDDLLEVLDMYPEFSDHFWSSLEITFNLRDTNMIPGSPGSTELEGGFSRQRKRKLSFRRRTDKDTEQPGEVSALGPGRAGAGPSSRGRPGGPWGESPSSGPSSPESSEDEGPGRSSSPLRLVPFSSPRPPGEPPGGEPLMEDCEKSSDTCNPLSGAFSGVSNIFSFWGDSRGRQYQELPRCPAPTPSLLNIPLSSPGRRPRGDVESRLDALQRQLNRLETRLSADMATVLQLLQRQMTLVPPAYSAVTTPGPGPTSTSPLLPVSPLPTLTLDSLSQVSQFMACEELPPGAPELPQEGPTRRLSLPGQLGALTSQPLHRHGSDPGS

[9] = system: FXN transcription; conditions: doses up to 8g per day; cited from earlier work
[10] = system: voltage-gated Na+ channel; format: cell-based, human

Structure (SMILES): Cc1ccc(C(=O)NCCCCCC(=O)Nc2ccccc2N)cc1 [HDACi 109, N-[6-(2-aminophenylamino) −6-oxohexyl]-4-methylbenzamide]
- RNA nuclear foci [1]: lack of RNA nuclear foci
- CL/F [2]: 6.39±1.71 (5) l/h
- Cmax (time of) [2]: ≤ 2 h
- CL/F ([2]; 30 mg): 3.91±0.59 (2) l/h
- CL/F ([2]; 60 mg): 6.43±1.51 (3) l/h
- CL/F ([2]; 120 mg): 5.80±1.46 (5) l/h
- CL/F ([2]; 180 mg): 5.24±0.89 (5) l/h
- AUC(0-inf) [3]: 39600 ng·h/mL
- AUC(0-t) [3]: 39300 ng·h/mL
- CL/F [3]: 1.98 mL/min/kg
- Cmax [3]: 7150 ng/mL
- Tmax [3]: 0.5 h
- Vd/F [3]: 75.5 L and 1.41 L/kg
- k el [3]: 2.34e-05 s⁻¹
- AUC(0-inf) ([3]; 30 mg): 7760 ng·h/mL
- AUC(0-t) ([3]; 30 mg): 7700 ng·h/mL
- CL/F ([3]; 30 mg): 1.02 mL/min/kg
- Cmax ([3]; 30 mg): 1980 ng/mL
- Tmax ([3]; 30 mg): 0.67 h
- Vd/F ([3]; 30 mg): 45.1 L and 0.69 L/kg
- k el ([3]; 30 mg): 2.49e-05 s⁻¹
- half-life ([3]; 30 mg): 8.2 h
- AUC(0-inf) ([3]; 60 mg): 9720 ng·h/mL
- AUC(0-t) ([3]; 60 mg): 9630 ng·h/mL
- CL/F ([3]; 60 mg): 1.45 mL/min/kg
- Cmax ([3]; 60 mg): 2560 ng/mL
- Tmax ([3]; 60 mg): 0.67 h
- Vd/F ([3]; 60 mg): 79 L and 1.04 L/kg
- k el ([3]; 60 mg): 2.37e-05 s⁻¹
- half-life ([3]; 60 mg): 8.43 h
- AUC(0-inf) ([3]; 120 mg): 22000 ng·h/mL
- AUC(0-t) ([3]; 120 mg): 21700 ng·h/mL
- CL/F ([3]; 120 mg): 1.42 mL/min/kg
- Cmax ([3]; 120 mg): 6470 ng/mL
- Tmax ([3]; 120 mg): 1 h
- Vd/F ([3]; 120 mg): 89.7 L and 1.32 L/kg
- k el ([3]; 120 mg): 2.05e-05 s⁻¹
- half-life ([3]; 120 mg): 10.1 h
- AUC(0-inf) ([3]; 180 mg): 35100 ng·h/mL
- AUC(0-t) ([3]; 180 mg): 34900 ng·h/mL
- CL/F ([3]; 180 mg): 1.65 mL/min/kg
- Cmax ([3]; 180 mg): 10900 ng/mL
- Tmax ([3]; 180 mg): 0.67 h
- Vd/F ([3]; 180 mg): 52.8 L and 1 L/kg
- k el ([3]; 180 mg): 2.82e-05 s⁻¹
- half-life ([3]; 180 mg): 7.07 h
- half-life [3]: 8.56 h
- GAA•TTC repeat instability [4]: no effect on repeat instability

Structure (SMILES): Nc1ccc(-c2cccs2)cc1NC(=O)CCCCCCNC(=O)c1cccnc1 [HDACi 233, N-[2-amino-5-(2-thienyl)phenyl]-7-nicotinoylamino-heptanamide]
- FXN gene expression induction compared with HDACi 109 [5]: Neither of these latter compounds induced FXN gene expression to the extent observed with HDACi 109

Structure (SMILES): Nc1cc(F)ccc1NC(=O)/C=C/c1cnn(CC=Cc2ccccc2)c1 [HDACi 966, [E]-N-[2-amino-4-fluorophenyl]-3-[1-cinnamyl-1H-pyrazol-4-yl]acrylamide]
- FXN gene expression induction compared with HDACi 109 [5]: Neither of these latter compounds induced FXN gene expression to the extent observed with HDACi 109
- selectivity for HDAC3 over HDAC1/2 [6]: ~ 30 fold

Structure (SMILES): Nc1ccc(-c2ccccc2)cc1NC(=O)CCCCCC(=O)Nc1ccccc1 [N[1]-[4-aminobiphenyl-3-yl]-N[7]-phenylheptanediamide]
- FXN upregulation ([7]; patient lymphocytes): inactive

Structure (SMILES): O=C(CCCCCCC(=O)Nc1ccccc1)NO [SAHA, suberoylanilide hydroxamic acid]
- upregulation of FXN mRNA and protein [7]: fail to elicit this effect

Structure (SMILES): c1ccc2[nH]cnc2c1 [benzimidazole]
- IC50 [8]: 0.92 µM

Structure (SMILES): NC(=O)c1cccnc1 [nicotinamide]
- restoring FXN transcription in peripheral lymphocytes from blood of orally dosed patients [9]: effective

Structure (SMILES): NC1=N[C@H](O)[C@H]2[C@H]3O[C@]4(O)O[C@@H]([C@@H](O)[C@@]2(N1)[C@@H]4O)[C@]3(O)CO [tetrodotoxin]
- action potential generation [10]: reversibly blocked AP generation

Structure (SMILES): Cc1ccc(S(=O)(=O)O)cc1 [toluene sulfonic acid]
- upregulation of FXN mRNA and protein [7]: fail to elicit this effect
